Assay results from the NIST ThermoML archive (doi:10.1007/s10765-012-1309-7).

Settings: Liquid, Capillary tube (Ostwald / Ubbelohde) method

CCF [fluoroethane]
Settings	kinematic viscosity [m2/s]
233.15 K	2.93e-07
238.15 K	2.81e-07
243.15 K	2.7e-07
248.11 K	2.58e-07
253.15 K	2.46e-07
258.12 K	2.37e-07
263.17 K	2.28e-07
268.16 K	2.17e-07
273.16 K	2.09e-07
278.16 K	2.01e-07
283.15 K	1.92e-07
288.13 K	1.85e-07
293.18 K	1.78e-07
298.15 K	1.72e-07
303.12 K	1.66e-07
308.11 K	1.62e-07
313.15 K	1.54e-07
318.15 K	1.51e-07
320.16 K	1.49e-07
328.16 K	1.41e-07
333.15 K	1.37e-07
338.15 K	1.31e-07
343.13 K	1.28e-07
348.15 K	1.23e-07
353.17 K	1.21e-07
355.16 K	1.2e-07
360.16 K	1.16e-07
366.08 K	1.12e-07
371.36 K	1.08e-07

CC(C)C [2-methylpropane]
Settings	kinematic viscosity [m2/s]
285.13 K	3.1e-07
290.11 K	2.95e-07
295.11 K	2.87e-07
300.41 K	2.72e-07
303.37 K	2.67e-07
309.08 K	2.55e-07
313.12 K	2.46e-07
315.07 K	2.42e-07
318.2 K	2.38e-07
320.12 K	2.35e-07
323.83 K	2.25e-07
326.11 K	2.21e-07
330.11 K	2.14e-07
333.14 K	2.07e-07
335.12 K	2.09e-07
340.12 K	1.97e-07
340.15 K	1.97e-07
345.15 K	1.9e-07
